Legend:
Type in all cases: in vivo, human
[1] = system: intrinsic coagulation pathway; assay: AXIOMATIC-SSP pharmacodynamics: activated partial thromboplastin time (aPTT) and percent change from baseline; settings: for aPTT Percent Change from Baseline Mean / aPTT Percent Change from Baseline Median / aPTT Value Mean / aPTT Value Median: 50 mg BID
[2] = system: patients with acute ischemic stroke or high-risk TIA; assay: AXIOMATIC-SSP vascular territory of incident infarcts at Day 90 compared with baseline
Text: At baseline, recent ischemic lesions were detected and quantified using the DWI sequence. Incident infarcts (defined as new imaging lesions compared to the baseline MRI which may be associated with a symptomatic ischemic stroke or be covert in nature) were detected at Day 90 on the FLAIR sequence and categorized as DWI positive or DWI negative based on whether they could also be detected on the DWI sequence. DWI positive lesions at Day 90 were likely associated with infarctions occurring late during the follow-up period (approximately from Day 30 to Day 90) while DWI negative lesions were more likely related to earlier infarctions (approximately occurring by Day 30). The vascular territory of incident infarcts was also assessed at Day 90.

[3] = system: patients with acute ischemic stroke or high-risk TIA; assay: AXIOMATIC-SSP NIHSS at the time of first recurrent stroke; settings: first recurrent stroke
Text: National Institutes of Health Stroke Scale (NIHSS), Modified Rankin Scale (mRS), Montreal Cognitive Assessment (MoCA), and Digit Symbol Substitution Test (subtest of WAIS-IV) were collected at baseline (at randomization for NIHSS), on Days 21 and 90, and at the time of a new stroke event. MoCA and DSST (subset of WAIS-IV) were read by a third-party central laboratory blinded to treatment.
Descriptive statistics and corresponding change from baseline (where applicable) assessed by the National Institutes of Health Stroke Score (NIHSS), modified Rankin Scale (mRS), Montreal Cognitive Assessment (MoCA), and Digit Symbol Substitution Test (subtest of WAIS-IV) were summarized by treatment group.

C[C@@H]1CCC[C@H](n2cnc(-c3cc(Cl)ccc3-n3cc(Cl)nn3)cc2=O)c2cc(ccn2)-c2c(cnn2C(F)F)NC1=O [milvexian, (5R,9S)-9-(4-(5-chloro-2-(4-chloro-1H-1,2,3-triazol-1-yl)phenyl)-6-oxopyrimidin-1(6H)-yl)-21-(difluoromethyl)-5-methyl-21H-3-aza-1(4,2)-pyridina-2(5,4)-pyrazolacyclonaphan-4-one]
aPTT Percent Change from Baseline Mean ([1]; DAY 1 24 h, N 269): 85.17% | aPTT Percent Change from Baseline Median ([1]; DAY 1 24 h, N 269): 81.89% | aPTT Value Mean ([1]; DAY 1 24 h, N 269): 49.38 s | aPTT Value Median ([1]; DAY 1 24 h, N 269): 48.60 s | aPTT Percent Change from Baseline Mean ([1]; DAY 21 anytime, N 268): 115.62% | aPTT Percent Change from Baseline Median ([1]; DAY 21 anytime, N 268): 112.6% | aPTT Value Mean ([1]; DAY 21 anytime, N 268): 57.27 s | aPTT Value Median ([1]; DAY 21 anytime, N 268): 55.10 s | aPTT Percent Change from Baseline Mean ([1]; DAY 90 anytime, N 241): 97.32% | aPTT Percent Change from Baseline Median ([1]; DAY 90 anytime, N 241): 101.18% | aPTT Value Mean ([1]; DAY 90 anytime, N 241): 52.00 s | aPTT Value Median ([1]; DAY 90 anytime, N 241): 52.60 s | change in aPTT from baseline ([1]; milvexian treated groups): Dose-dependent increases | Incident infarcts at Day 90 by vascular territory: subjects (percent, in parentheses) ([2]; ACA, 25 BID, N = 285): (1.1) | Incident infarcts at Day 90 by vascular territory: subjects (percent, in parentheses) ([2]; ACA, 25 QD, N = 305): (0.3) | Incident infarcts at Day 90 by vascular territory: subjects (percent, in parentheses) ([2]; ACA, 50 BID, N = 306): (1.3) | Incident infarcts at Day 90 by vascular territory: subjects (percent, in parentheses) ([2]; AChA, 50 BID, N = 306): (0.3) | Incident infarcts at Day 90 by vascular territory: subjects (percent, in parentheses) ([2]; AChA, 100 BID, N = 275): (0.4) | Incident infarcts at Day 90 by vascular territory: subjects (percent, in parentheses) ([2]; AChA, 200 BID, N = 311): (0.4) | Incident infarcts at Day 90 by vascular territory: subjects (percent, in parentheses) ([2]; BASILAR - MIDBRAIN, 25 QD, N = 305): (0.3) | Incident infarcts at Day 90 by vascular territory: subjects (percent, in parentheses) ([2]; BASILAR - PONS, 50 BID, N = 306): (0.3) | Incident infarcts at Day 90 by vascular territory: subjects (percent, in parentheses) ([2]; BASILAR - THALAMUS, 25 BID, N = 285): (0.7) | Incident infarcts at Day 90 by vascular territory: subjects (percent, in parentheses) ([2]; BASILAR - THALAMUS, 25 QD, N = 305): (0.3) | Incident infarcts at Day 90 by vascular territory: subjects (percent, in parentheses) ([2]; BASILAR - THALAMUS, 50 BID, N = 306): (0.3) | Incident infarcts at Day 90 by vascular territory: subjects (percent, in parentheses) ([2]; LENTICULO-STRIATE ARTERIES, 25 BID, N = 285): (2.1) | Incident infarcts at Day 90 by vascular territory: subjects (percent, in parentheses) ([2]; LENTICULO-STRIATE ARTERIES, 25 QD, N = 305): (2.0) | Incident infarcts at Day 90 by vascular territory: subjects (percent, in parentheses) ([2]; LENTICULO-STRIATE ARTERIES, 50 BID, N = 306): (1.3) | Incident infarcts at Day 90 by vascular territory: subjects (percent, in parentheses) ([2]; LENTICULO-STRIATE ARTERIES, 100 BID, N = 275): (1.5) | Incident infarcts at Day 90 by vascular territory: subjects (percent, in parentheses) ([2]; LENTICULO-STRIATE ARTERIES, 200 BID, N = 311): (1.5) | Incident infarcts at Day 90 by vascular territory: subjects (percent, in parentheses) ([2]; MCA, 25 BID, N = 285): (4.9) | Incident infarcts at Day 90 by vascular territory: subjects (percent, in parentheses) ([2]; MCA, 25 QD, N = 305): (4.9) | Incident infarcts at Day 90 by vascular territory: subjects (percent, in parentheses) ([2]; MCA, 50 BID, N = 306): (4.2) | Incident infarcts at Day 90 by vascular territory: subjects (percent, in parentheses) ([2]; MCA, 100 BID, N = 275): (4.7) | Incident infarcts at Day 90 by vascular territory: subjects (percent, in parentheses) ([2]; MCA, 200 BID, N = 311): (4.7) | Incident infarcts at Day 90 by vascular territory: subjects (percent, in parentheses) ([2]; PCA, 25 BID, N = 285): (1.4) | Incident infarcts at Day 90 by vascular territory: subjects (percent, in parentheses) ([2]; PCA, 25 QD, N = 305): (2.6) | Incident infarcts at Day 90 by vascular territory: subjects (percent, in parentheses) ([2]; PCA, 50 BID, N = 306): (2.0) | Incident infarcts at Day 90 by vascular territory: subjects (percent, in parentheses) ([2]; PCA, 100 BID, N = 275): (2.5) | Incident infarcts at Day 90 by vascular territory: subjects (percent, in parentheses) ([2]; PCA, 200 BID, N = 311): (2.5) | Incident infarcts at Day 90 by vascular territory: subjects (percent, in parentheses) ([2]; PICA, 25 BID, N = 285): (1.1) | Incident infarcts at Day 90 by vascular territory: subjects (percent, in parentheses) ([2]; PICA, 25 QD, N = 305): (0.3) | Incident infarcts at Day 90 by vascular territory: subjects (percent, in parentheses) ([2]; PICA, 100 BID, N = 275): (1.1) | Incident infarcts at Day 90 by vascular territory: subjects (percent, in parentheses) ([2]; PICA, 200 BID, N = 311): (1.1) | Incident infarcts at Day 90 by vascular territory: subjects (percent, in parentheses) ([2]; SCA, 25 BID, N = 285): (0.7) | Incident infarcts at Day 90 by vascular territory: subjects (percent, in parentheses) ([2]; SCA, 25 QD, N = 305): (0.7) | Incident infarcts at Day 90 by vascular territory: subjects (percent, in parentheses) ([2]; SCA, 100 BID, N = 275): (0.4) | Incident infarcts at Day 90 by vascular territory: subjects (percent, in parentheses) ([2]; SCA, 200 BID, N = 311): (0.4) | NIHSS Change from Baseline Mean ([3]; 25 BID, N 11): 2.6 | NIHSS Change from Baseline Median ([3]; 25 BID, N 11): 3.0 | NIHSS Value Mean ([3]; 25 BID, N 11): 5.4 | NIHSS Value Median ([3]; 25 BID, N 11): 5.0 | NIHSS Change from Baseline Mean ([3]; 25 QD, N 14): 2.6 | NIHSS Change from Baseline Median ([3]; 25 QD, N 14): 2.0 | NIHSS Value Mean ([3]; 25 QD, N 14): 4.6 | NIHSS Value Median ([3]; 25 QD, N 14): 3.5 | NIHSS Change from Baseline Mean ([3]; 50 BID, N 11): 1.6 | NIHSS Change from Baseline Median ([3]; 50 BID, N 11): 1.0

Source: US20260034130A1 (priority 2022, published 2026)
